{"source": "patent US20050058600A1", "about": "“3,3'-Diindolylmethane antiandrogenic compositions” (priority 2003, published 2005)", "key": {"GFP-AR": {"test_system": "GFP-AR", "assay": "Fluorescence imaging of GFP-AR in transfected PC-3 cells", "assay_type": "cell-based", "experimental": "(§1) Transient Transfections with Reporters and Luciferase Assay. LNCaP and PC-3 cells were transfected, with some modifications, as previously described (20). For AR transactivation, cells were transfected with 0.1 μg of MMTV-Luc or pPSA-Luc per plate. Co-transfection experiments with pCMV-hAR or pCMV-GFP-rAR, 0.1 μg per plate was also used. For experiments involving GFP fluorescence imaging, treatments were not added until 30 h after transfection.\nFluorescence Imaging. PC-3 cells were plated on cover slips in six-well culture plates at 1.5×10^5 cells per well in 5% DCC-FBS-DMEM medium. Cells were co-transfected with pCMV-GFP-rAR and pPSA-Luc or MMTV-Luc as indicated above. Cover slips were placed on microscope slides and images were taken at 1000×."}, "AR [1]": {"molecular_target": "T1, AR (Homo sapiens, UniProt P10275)", "T1 construct": "expressed in transfected cells; host or cells: PC-3", "T1 sequence (P10275 1-920)": "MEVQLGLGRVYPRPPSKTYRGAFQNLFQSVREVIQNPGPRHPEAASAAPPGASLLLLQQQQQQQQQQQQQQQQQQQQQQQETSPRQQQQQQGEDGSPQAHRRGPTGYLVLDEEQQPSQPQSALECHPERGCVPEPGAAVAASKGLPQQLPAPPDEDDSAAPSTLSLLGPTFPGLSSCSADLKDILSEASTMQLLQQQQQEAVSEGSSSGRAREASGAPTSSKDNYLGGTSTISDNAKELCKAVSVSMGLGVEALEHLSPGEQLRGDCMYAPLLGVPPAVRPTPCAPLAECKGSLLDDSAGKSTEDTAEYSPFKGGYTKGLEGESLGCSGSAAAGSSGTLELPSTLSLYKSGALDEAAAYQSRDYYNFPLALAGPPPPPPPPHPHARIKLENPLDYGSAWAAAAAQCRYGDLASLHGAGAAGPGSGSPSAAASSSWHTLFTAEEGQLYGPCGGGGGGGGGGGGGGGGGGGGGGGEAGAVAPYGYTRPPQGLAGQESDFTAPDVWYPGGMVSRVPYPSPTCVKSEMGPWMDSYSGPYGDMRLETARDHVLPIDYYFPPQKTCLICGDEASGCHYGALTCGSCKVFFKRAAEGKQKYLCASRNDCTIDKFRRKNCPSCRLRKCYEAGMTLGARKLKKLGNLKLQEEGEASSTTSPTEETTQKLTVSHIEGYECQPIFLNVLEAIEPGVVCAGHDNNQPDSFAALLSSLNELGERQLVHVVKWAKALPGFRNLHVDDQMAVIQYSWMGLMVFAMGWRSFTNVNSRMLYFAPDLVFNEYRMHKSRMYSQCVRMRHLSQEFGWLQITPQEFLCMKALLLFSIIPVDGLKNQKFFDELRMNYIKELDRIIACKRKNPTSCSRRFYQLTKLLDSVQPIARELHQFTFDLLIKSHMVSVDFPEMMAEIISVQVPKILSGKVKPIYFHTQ", "assay": "pPSA-Luc / MMTV-Luc reporter assay in PC-3 cells with or without AR expression vector", "assay_type": "cell-based", "details": "PC-3 co-transfected with AR expression vector; pPSA-Luc, same with MMTV-Luc", "experimental": "(§2) Plasmid Reporters and Expression Vectors. The ARE responsive luciferase reporter plasmid, pPSA-630 luciferase (pPSA-Luc) was prepared as previously described (29). pPSA-Luc contains the PSA promoter region (−630 to 12) with three AREs, all of which are critical to the activity of the pPSA-Luc promoter. The MMTV-Luc contains one consensus ARE and the expression vector, pCMV-hAR constitutively expresses a fully functional human androgen receptor. The pCMV-GFP-rAR was prepared as previously described (30).\nas §1"}, "AR [2]": {"test_system": "AR", "assay": "pPSA-Luc / MMTV-Luc reporter assay in PC-3 cells with or without AR expression vector", "assay_type": "cell-based, human", "experimental": "as §2, §1"}}, "data": [{"smiles": "c1ccc2c(Cc3c[nH]c4ccccc34)c[nH]c2c1", "note": "[DIM, 3,3′-diindolylmethane]", "values": [{"measurement": "distribution of GFP-AR fluorescence", "setting": "GFP-AR; DIM alone", "result": "predominantly cytoplasmic distribution"}, {"measurement": "formation of AR foci in the nucleus", "setting": "GFP-AR; DIM treatment with DHT", "result": "prevented the formation of AR foci"}, {"measurement": "inhibition of AR translocation induced by DHT", "setting": "GFP-AR; co-treatment with 50 μM DIM and 1 nM DHT", "result": "partially inhibited"}, {"measurement": "inhibition of DHT-induced transactivation", "setting": "AR [1]", "result": "concentration-dependent inhibition"}, {"measurement": "effect on pPSA-Luc reporter", "setting": "AR [2]; PC-3 without co-transfection of an AR expression vector", "result": "has no effect"}, {"measurement": "transactivation of reporter genes by compound alone", "setting": "AR [2]; either cell line, with or without co-transfection of wild-type AR", "result": "did not induce transactivation"}]}]}
